# Data from PubChem BioAssay (NCI).
# “And” between values parts separate entries of the source, which are not always exact repeats. Equal entries are not always repeated.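 Step 1: Grow cells in 96-well plates. Step 2: Expose to compound for 48 hours at 5 concentrations. Step 3: Interpolate endpoints linearly; if unreached, use highest concentration. GI50 is the concentration that inhibits growth by half. At the TGI there is no net growth.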
# Legend:
# Assay in all cases: NCI tumour cell line growth inhibition, 48 h
# MALME-3M melanoma = test system: MALME-3M melanoma
# NCI-H522 lung = test system: NCI-H522 lung
# UO-31 renal = test system: UO-31 renal
# COLO 205 colon = test system: COLO 205 colon
# MDA-MB-231 breast = test system: MDA-MB-231 breast
# SK-MEL-5 melanoma = test system: SK-MEL-5 melanoma
# SN12C renal = test system: SN12C renal
# MCF7 breast = test system: MCF7 breast
# HT29 colon = test system: HT29 colon
# HCC-2998 colon = test system: HCC-2998 colon
SMILES,GI50 (MALME-3M melanoma),TGI (MALME-3M melanoma),GI50 (NCI-H522 lung),TGI (NCI-H522 lung),GI50 (UO-31 renal),TGI (UO-31 renal),GI50 (COLO 205 colon),TGI (COLO 205 colon),GI50 (MDA-MB-231 breast),TGI (MDA-MB-231 breast),GI50 (SK-MEL-5 melanoma),TGI (SK-MEL-5 melanoma),GI50 (SN12C renal),TGI (SN12C renal),GI50 (MCF7 breast),TGI (MCF7 breast),GI50 (HT29 colon),TGI (HT29 colon),TGI (HCC-2998 colon),GI50 (HCC-2998 colon)
O=C(Nc1ccc(Cl)c(Cl)c1)c1ccc(NC2=C(Cl)C(=O)N(Cc3ccccc3)C2=O)cc1,11.2 µM,24.8 µM,13.1 µM,27.2 µM,13.1 µM,25.8 µM,20 µM,66.6 µM,3.06 µM,9.41 µM,5.02 µM,17.9 µM,10.9 µM,25.9 µM,2.1 µM,4.82 µM,16.5 µM,> 100 µM,–,–
Cc1cc(-c2ccccc2)nc(Nc2cc3ccccc3[nH]2)n1,–,> 100 µM,–,> 100 µM,–,> 100 µM,–,> 100 µM,–,–,–,> 100 µM,–,> 100 µM,–,–,–,> 100 µM,> 100 µM,–
O=C1c2ccccc2C(=O)N1CC#CCO,–,–,–,> 100 µM,–,> 100 µM,–,–,–,–,–,> 100 µM,–,> 100 µM,–,–,–,> 100 µM,–,–
CC(=O)C(CN1C(=O)c2ccccc2C1=O)C(C)=O,–,–,–,> 100 µM,–,> 100 µM,–,> 100 µM,–,> 100 µM,–,> 100 µM,–,> 100 µM,–,> 100 µM,–,> 100 µM,> 100 µM,–
COc1cc(C2c3cc4c(cc3[C@@H](NC3CCN(Cc5ccccc5)CC3)C3COC(=O)[C@H]23)OCO4)cc(OC)c1O (stereo partly drawn),0.238 µM and 0.113 µM,1.6 µM and 1.11 µM,0.0827 µM,0.321 µM,0.214 µM and 0.0879 µM,1.11 µM and 0.275 µM,0.372 µM and 0.179 µM,–,–,–,0.206 µM and 0.0739 µM,1.4 µM and 0.373 µM,1.85 µM,3.89 µM,–,–,–,1.93 µM and 0.41 µM,1.13 µM and 0.427 µM,–
CCCCCCCCCCCCCCNCC(OC)OC,–,35.3 µM,–,34.2 µM,–,25.7 µM,–,28.3 µM,–,–,–,29.3 µM,–,30.9 µM,–,–,–,14.3 µM,33.4 µM,–
OC1OCC(COc2cc(Cl)c(Cl)cc2Cl)OC1O (stereo not drawn),–,> 100 µM,–,70.8 µM,–,> 100 µM,–,> 100 µM,–,–,–,> 100 µM,–,> 100 µM,–,–,–,> 100 µM,> 100 µM,–
COc1ccc(N=NC2=C(O)CCC2=O)cc1,–,> 100 µM,–,–,–,> 100 µM,–,> 100 µM,–,–,–,> 100 µM,–,> 100 µM,–,–,–,> 100 µM,> 100 µM,–
CC1(C)CC(=O)C(CC2C(=O)CCCC2=O)C(=O)C1,–,> 100 µM,–,> 100 µM,–,> 100 µM,–,> 100 µM,–,–,–,> 100 µM,–,> 100 µM,–,–,–,> 100 µM,> 100 µM,–
NS(=O)(=O)c1ccc(-n2nc3c(c2-c2cccs2)Cc2ccccc2-3)cc1,–,–,12.4 µM,29.8 µM,12.2 µM,24.6 µM,25.3 µM,69.3 µM,17.3 µM,36.2 µM,10.5 µM,22.5 µM,12.2 µM,25 µM,> 100 µM,> 100 µM,22.9 µM,59.4 µM,25.4 µM,12.8 µM
COC(=O)C1=C(C)NC(=S)NC1c1ccc(N(CCCl)CCCl)cc1Cl (stereo not drawn),–,41.7 µM,–,81.9 µM,–,> 80.7 µM,–,59.7 µM,–,> 100 µM,–,20.1 µM,–,> 100 µM,–,66.1 µM,–,> 82.8 µM,–,–
CCCCCCCCCC1CC(=O)OC2=C1C(=O)CCC2 (stereo not drawn),–,> 100 µM,–,> 100 µM,–,> 100 µM,–,> 100 µM,–,–,–,> 100 µM,–,> 100 µM,–,–,–,> 100 µM,> 100 µM,–
NC(=O)NNC/C(Cl)=C(\Cl)C(=O)O,–,> 100 µM,–,> 100 µM,–,> 100 µM,–,> 100 µM,–,–,–,> 100 µM,–,> 100 µM,–,–,–,> 100 µM,> 100 µM,–
C/C(=N\N=C(N)N)C(CN1CCOCC1)C(c1ccccc1)c1c(O)c2ccccc2oc1=O (stereo not drawn),–,> 100 µM,–,> 100 µM,–,–,–,> 100 µM,–,–,–,> 100 µM,–,> 100 µM,–,–,–,> 100 µM,> 100 µM,–
C[C@]12CC[C@H]3[C@@H](CC[C@]4(O)C[C@@H](O)CC[C@]34C=O)[C@@]1(O)CC[C@@H]2C1=CC(=O)OC1,–,2.03 µM,–,1.4 µM,–,2.91 µM,–,6.7 µM,–,> 29.6 µM,–,1.16 µM,–,1.8 µM,–,–,–,2.03 µM,7.13 µM,–
CCCCCCC(=O)NC1=C(N2CC2)C(=O)C(NC(=O)CCCCCC)=C(N2CC2)C1=O,1.6 µM,4.98 µM,–,–,6.15 µM,> 100 µM,–,–,3.89 µM,> 100 µM,–,–,–,–,2.06 µM,> 100 µM,2.94 µM,> 100 µM,–,–
